In patent US3932471A, “Azide” (priority 1973, dated 1976):
≈ marks a conversion by molar mass, not a printed value.

Tests used:
Assay type in all cases: in vivo
[1] = system: Southern army worm (Prodenia eridania); assay: Southern army worm spray test (AW); settings: 72 h; contact activity rating, 50% mortality, three days
Procedure: (§1) The compounds are evaluated for biological activity against the following representative pests: Mexican bean beetle (Epilachna varivestis), Southern army worm (Prodenia eridania), housefly (Musca domestica), bean aphid (Aphis fabae), and red spider mite (Tetranychus sp.). The last two pests are treated both by contact and systemic application.
(§2) For purposes of comparison, results obtained with known Compound 7472, Compound 7577, and aldicarb are included in the test results. Each test compound is rated using the following scale:
Southern Army Worm Spray Test
Paired fully expanded primary leaves excised from Scarlet runner bean plants are maintained in plastic tubes containing water and sprayed with the test formulation prepared as described in Example 15. After the spray deposit on the leaves is dry, the paired leaves are separated. One leaf is placed onto 1.5 percent water agar and infested with 10 newly hatched Southern army worm larvae. The covered test receptacle is held at 72° F for three days and then the percent mortality is determined. Results of this test are shown in Table 7 as AW (Southern army worm spray test).

[2] = system: housefly (Musca domestica); assay: Housefly spray test (HF); settings: 72 h, contact activity rating, 50% mortality, three days
Procedure: as §1, §2
This test determines the insecticidal activity of the compound being tested against adult houseflies, Musca domestica. Stock formulations containing 500 ppm of each test chemical are prepared using the procedure described in Example 15 and are diluted to obtain the appropriate lower concentrations.
Ten adult flies are placed in a cylindrical screen cage 11/2 by 4 inches fabricated from 20-mesh stainless steel screening and are sprayed with 50 ml of the stock or diluted formulation. The flies are supplied food and drink from a dextrose solution by draping a paper wick over the outside of the screen cylinder and are able to feed and drink ad libitum. Percent mortality obtained is determined three days after treatment. Results of this test are shown in Table 7 as HF (housefly spray test).

[3] = system: root-knot nematodes (Meloidogyne spp.); assay: Root-knot nematocide test
Procedure: Root-knot Nematocide Test
This test is an evaluation of the effectiveness of the compound being tested against infection by root-knot nematodes (Meloidogyne spp.).
Composted greenhouse soil, diluted by one-third with clean washed sand, is infected with about two grams of knotted or galled tomato roots per pot. Treatment is accomplished by applying 25 ml of the formulated compound onto the infested soil. The formulation contains 0.056 g of Compound 7960, 1.0 ml stock emulsifier solution (0.25% Triton X-155 in acetone by volume), and 24.0 ml deionized water, giving a concentration of 2240 ppm. Lower concentrations are achieved by dilution.
After treatment with the test formulation, the soil, inoculum, and formulation are thoroughly mixed, returned to the pot, and the mixture incubated for seven days at 20° C and constant moisture. After incubation, two seedlings of Rutgers tomato transplants and three garden nasturtium (Nasturtium spp.) seeds are set in each pot. Roots are removed from the soil after three weeks of growth and rated for gall (root-knot nematode infection) formation. Nasturtium roots are evaluated only when necrosis of the tomato host has occurred. […] Each of the root systems is rated separately and the average is multiplied by 10 and subtracted from 100 to give percent nematode control.

SMILES | LC50 [1] [µg/mL] | LC50 [2] [µg/mL] | further results
CNC(=O)ON=C(C)C(C)(C)C [Compound 7472, 2,2-dimethyl-3-methylcarbamyloximinobutane, reference compound] | > 500 | > 500 | –
CNC(=O)ON=C(CSCC(=O)OC)C(C)(C)C [Compound 7503, 1-carbomethoxymethylthio-3,3-dimethyl-2-methylcarbamyloximinobutane] | > 500 | > 500 | –
CNC(=O)ON=C(C)C(C)(C)SC [Compound 7577, 3-methyl-2-methylcarbamyloximino-3-methylthiobutane, reference compound] | > 500 | > 500 | –
CNC(=O)ON=C(C)CSC [Compound 7603, 2-methylcarbamyloximino-1-methylthiopropane] | > 500 | 16 to 32 (≈ 90.8 to 182 µM) | –
CNC(=O)ON=C(CSc1ccccc1)C(C)(C)C [Compound 7718, 3,3-dimethyl-2-methylcarbamyloximino-1-phenylthiobutane] | > 500 | 250 to 500 (≈ 892 to 1780 µM) | –
CCNC(=O)ON=C(CSC)C(C)(C)C [Compound 7797, 2-ethylcarbamyloximino-3,3-dimethyl-1-methylthiobutane] | > 500 | 64 to 128 (≈ 275 to 551 µM) | –
C=CCNC(=O)ON=C(CSC)C(C)(C)C [Compound 7799, 2-allylcarbamyloximino-3,3-dimethyl-1-methylthiobutane] | > 500 | 128 to 250 (≈ 524 to 1020 µM) | –
CNC(=O)ON=C(C[S+](C)[O-])C(C)(C)C (centres unmarked) [Compound 7804, 3,3-dimethyl-2-methylcarbamyloximino-1-methylsulfinylbutane] | 128 to 250 (≈ 546 to 1070 µM) | 128 to 250 (≈ 546 to 1070 µM) | –
CSCC(=NOC(N)=O)C(C)(C)C [Compound 7859, 2-carbamyloximino-3,3-dimethyl-1-methylthiobutane] | > 500 | > 500 | –
CCSCC(=NOC(=O)NC)C(C)(C)C [Compound 7862, 1-ethylthio-3,3-dimethyl-2-methylcarbamyloximinobutane] | > 500 | 64 to 128 (≈ 275 to 551 µM) | –
CNC(=O)ON=C(CSC)C(C)C [Compound 7867, 3-methyl-2-methylcarbamyloximino-1-methylthiobutane] | > 500 | 64 to 128 (≈ 313 to 627 µM) | –
CSCC(=NOC(=O)N(C)C)C(C)(C)C [Compound 7871, 3,3-dimethyl-2-dimethylcarbamyloximino-1-methylthiobutane] | > 500 | > 500 | –
C=CCSCC(=NOC(=O)NC)C(C)(C)C [Compound 7897, 1-allylthio-3,3-dimethyl-2-methylcarbamyloximinobutane] | > 500 | 64 to 128 (≈ 262 to 524 µM) | –
CCC(CSC)=NOC(=O)NC [Compound 7916, 2-methylcarbamyloximino-1-methylthiobutane] | > 500 | 64 to 128 (≈ 336 to 673 µM) | –
CCCC(C)(C)C(CSC)=NOC(=O)NC [Compound 7934, 3,3-dimethyl-2-methylcarbamyloximino-1-methylthiohexane] | > 500 | > 500 | –
CNC(=O)ON=C(CSC)C(C)(C)SC [Compound 7960, 1,3-bis(methylthio)-3-methyl-2-methylcarbamyloximinobutane] | > 500 | > 500 | Percent Control (nematode) ([3]; 0.5 lb/A): 97%; Percent Control (nematode) ([3]; 1 lb/A): 100%; Percent Control (nematode) ([3]; 2 lb/A): 100%; Percent Control (nematode) ([3]; 4 lb/A): 100%; Percent Control (nematode) ([3]; 8 lb/A): 100%
CNC(=O)ON=C(CSC#N)C(C)(C)C [Compound 7991, 3,3-dimethyl-2-methylcarbamyloximino-1-thiocyanatobutane] | > 500 | > 500 | –
CNC(=O)ON=C(C(C)SC)C(C)(C)C (centres unmarked) [Compound 8071, 2,2-dimethyl-3-methylcarbamyloximino-4-methylthiopentane] | > 500 | > 500 | –
CNC(=O)ON=C(CCSC)C(C)(C)C [Compound 8111, 4,4-dimethyl-3-methylcarbamyloximino-1-methylthiopentane] | > 500 | 250 to 500 (≈ 1080 to 2150 µM) | –
CNC(=O)ON=C(C1SCCS1)C(C)(C)C [Compound 8423, 1,1-ethylenedithio-3,3-dimethyl-2-methylcarbamyloximinobutane] | – | – | Percent Control (nematode) ([3]; 2 lb/A): 60%; Percent Control (nematode) ([3]; 4 lb/A): 90%; Percent Control (nematode) ([3]; 8 lb/A): 100%
CNC(=O)ON=C(CSC)C1CC1 [Compound 8465, 1-cyclopropyl-1-methylcarbamyloximino-2-methylthioethane] | 250 to 500 (≈ 1240 to 2470 µM) | 128 to 250 (≈ 633 to 1240 µM) | –
CNC(=O)ON=C(CSC)CC(C)(C)C [Compound 8519, 4,4-dimethyl-2-methylcarbamyloximino-1-methylthiopentane] | > 500 | > 500 | –
CCC(C)(C)C(CSC)=NOC(=O)NC [Compound 8520, 3,3-dimethyl-2-methylcarbamyloximino-1-methylthiopentane] | > 500 | > 500 | –
CNC(=O)ON=C(CS(C)(=O)=O)C(C)(C)C [Compound 8868, 3,3-dimethyl-2-methylcarbamyloximino-1-methylsulfonylbutane] | > 500 | 128 to 250 (≈ 511 to 999 µM) | –
CNC(=O)ON=C(CN=[N+]=[N-])C(C)(C)C [Compound 8997, 1-azido-3,3-dimethyl-2-methylcarbamyloximinobutane] | 128 to 250 (≈ 600 to 1170 µM) | 128 to 250 (≈ 600 to 1170 µM) | Percent Control (nematode) ([3]; 2 lb/A): 0%; Percent Control (nematode) ([3]; 4 lb/A): 100%; Percent Control (nematode) ([3]; 8 lb/A): 100%
CNC(=O)ON=C(CSCCSC)C(C)(C)C [Compound 9026, 3,3-dimethyl-2-methylcarbamyloximino-1-(2-methylthioethylthio)-butane] | > 500 | > 500 | Percent Control (nematode) ([3]; 1 lb/A): 30%; Percent Control (nematode) ([3]; 2 lb/A): 60%; Percent Control (nematode) ([3]; 4 lb/A): 70%; Percent Control (nematode) ([3]; 8 lb/A): 90%
CCCC(CSC)=NOC(=O)NC [Compound 9057, 2-methylcarbamyloximino-1-methylthiopentane] | > 500 | 250 to 500 (≈ 1220 to 2450 µM) | –
CNC(=O)ON=C(CSC)CC(C)C [Compound 9058, 4-methyl-2-methylcarbamyloximino-1-methylthiopentane] | > 500 | 250 to 500 (≈ 1150 to 2290 µM) | –
CNC(=O)O/N=C/C(C)(C)SC [aldicarb, reference compound] | > 500 | 4 to 8 (≈ 21 to 42 µM) | –
